Measured values taken from article PMC5563523, “Discovery of a ROCK inhibitor, FPND, which prevents cerebral hemorrhage through maintaining vascular integrity by interference with VE-cadherin” (Cell Death Discovery, 2017).

Target: ROCK1 (Homo sapiens, UniProt Q13464)
Assay: Z'-LYTE kinase assay with ROCK1 enzyme, peptide substrate and […] ATP
Format: biochemical

Sequence of ROCK1 (Q13464 2-1354): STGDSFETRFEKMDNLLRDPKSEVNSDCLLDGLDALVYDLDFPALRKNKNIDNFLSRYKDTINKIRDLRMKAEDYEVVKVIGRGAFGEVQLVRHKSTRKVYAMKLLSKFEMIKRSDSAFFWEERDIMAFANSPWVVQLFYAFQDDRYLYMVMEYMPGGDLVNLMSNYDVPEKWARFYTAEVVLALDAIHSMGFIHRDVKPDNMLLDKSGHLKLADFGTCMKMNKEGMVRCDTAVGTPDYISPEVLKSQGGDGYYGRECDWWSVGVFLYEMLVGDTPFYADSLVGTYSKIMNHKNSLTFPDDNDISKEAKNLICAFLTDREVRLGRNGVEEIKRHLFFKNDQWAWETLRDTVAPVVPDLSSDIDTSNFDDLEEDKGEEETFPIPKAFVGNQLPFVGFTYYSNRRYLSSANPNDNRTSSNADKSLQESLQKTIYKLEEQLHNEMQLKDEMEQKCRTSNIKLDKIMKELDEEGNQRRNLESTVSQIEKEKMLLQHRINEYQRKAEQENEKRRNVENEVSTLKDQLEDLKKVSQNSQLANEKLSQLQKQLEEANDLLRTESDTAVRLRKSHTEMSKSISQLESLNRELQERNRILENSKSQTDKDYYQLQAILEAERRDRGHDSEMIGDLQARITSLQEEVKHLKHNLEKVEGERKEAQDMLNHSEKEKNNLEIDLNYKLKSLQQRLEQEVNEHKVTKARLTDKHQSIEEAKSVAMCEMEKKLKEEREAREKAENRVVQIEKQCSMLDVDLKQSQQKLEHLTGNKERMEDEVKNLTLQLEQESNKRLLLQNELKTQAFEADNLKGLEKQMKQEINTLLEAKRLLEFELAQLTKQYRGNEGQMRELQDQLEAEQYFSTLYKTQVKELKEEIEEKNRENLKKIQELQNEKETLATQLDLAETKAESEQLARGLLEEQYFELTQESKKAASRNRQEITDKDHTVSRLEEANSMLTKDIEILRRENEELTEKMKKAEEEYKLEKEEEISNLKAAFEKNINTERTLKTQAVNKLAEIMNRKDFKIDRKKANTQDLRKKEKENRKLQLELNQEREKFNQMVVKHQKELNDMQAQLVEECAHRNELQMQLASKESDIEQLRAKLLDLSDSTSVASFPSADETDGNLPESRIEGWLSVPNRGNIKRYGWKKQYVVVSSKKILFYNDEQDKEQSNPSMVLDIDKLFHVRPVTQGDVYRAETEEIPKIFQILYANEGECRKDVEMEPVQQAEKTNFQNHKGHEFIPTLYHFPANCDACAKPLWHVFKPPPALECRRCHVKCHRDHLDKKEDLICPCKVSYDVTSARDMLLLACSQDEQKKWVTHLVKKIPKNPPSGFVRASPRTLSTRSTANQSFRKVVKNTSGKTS

- IC50: 11.2 ± 2.2 µM
Compound: Nc1nc(CN2CCN(c3ccccc3F)CC2)nc(Nc2cccc3ccccc23)n1 [FPND, 6-[4-(2-fluorophenyl)-1-piperazinyl]methyl-N-1-naphthyl-1,3,5-triazine-2,4-diamine]
